Like-named read-outs stand apart in the source and are kept apart here.
Target: T1, epithelial amiloride-sensitive sodium channel (ENaC) (Homo sapiens, UniProt P37088+P51168+P51170)
T1 sequence (P37088 1-669): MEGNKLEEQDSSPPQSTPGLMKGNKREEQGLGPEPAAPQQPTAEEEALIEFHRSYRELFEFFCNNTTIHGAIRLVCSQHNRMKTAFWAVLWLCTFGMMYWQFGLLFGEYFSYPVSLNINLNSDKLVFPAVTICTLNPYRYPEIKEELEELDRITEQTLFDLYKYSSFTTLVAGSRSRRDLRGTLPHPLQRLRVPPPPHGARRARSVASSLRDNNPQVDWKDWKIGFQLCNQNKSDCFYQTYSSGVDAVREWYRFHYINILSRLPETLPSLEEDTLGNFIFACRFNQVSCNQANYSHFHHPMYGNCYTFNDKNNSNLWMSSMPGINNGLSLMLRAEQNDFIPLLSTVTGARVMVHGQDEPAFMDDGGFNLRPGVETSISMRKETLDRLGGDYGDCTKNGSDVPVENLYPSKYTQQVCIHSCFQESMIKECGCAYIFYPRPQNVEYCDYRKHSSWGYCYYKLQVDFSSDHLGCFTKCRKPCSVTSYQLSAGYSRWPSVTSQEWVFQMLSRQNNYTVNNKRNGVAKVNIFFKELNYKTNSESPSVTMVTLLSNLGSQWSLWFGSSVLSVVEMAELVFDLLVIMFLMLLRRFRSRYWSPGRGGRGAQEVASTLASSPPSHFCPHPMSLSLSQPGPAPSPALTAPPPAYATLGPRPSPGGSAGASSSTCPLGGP
T1 sequence (P51168 1-640): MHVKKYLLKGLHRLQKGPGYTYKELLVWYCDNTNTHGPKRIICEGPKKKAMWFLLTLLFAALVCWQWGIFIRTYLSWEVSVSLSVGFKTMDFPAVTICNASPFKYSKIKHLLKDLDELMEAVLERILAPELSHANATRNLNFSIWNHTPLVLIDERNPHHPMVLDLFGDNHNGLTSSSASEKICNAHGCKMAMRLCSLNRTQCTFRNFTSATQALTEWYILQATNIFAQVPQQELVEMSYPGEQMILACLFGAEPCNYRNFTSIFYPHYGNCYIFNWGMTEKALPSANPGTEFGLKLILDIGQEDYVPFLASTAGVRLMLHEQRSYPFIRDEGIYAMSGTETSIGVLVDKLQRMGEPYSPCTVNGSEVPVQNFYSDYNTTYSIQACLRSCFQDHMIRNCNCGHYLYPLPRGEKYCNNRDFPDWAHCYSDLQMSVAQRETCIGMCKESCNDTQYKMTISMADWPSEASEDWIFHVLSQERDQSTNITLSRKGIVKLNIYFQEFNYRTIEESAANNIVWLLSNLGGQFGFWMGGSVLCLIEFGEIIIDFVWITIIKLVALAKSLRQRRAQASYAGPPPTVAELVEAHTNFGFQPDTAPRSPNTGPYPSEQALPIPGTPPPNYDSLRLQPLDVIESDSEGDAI
T1 sequence (P51170 1-649): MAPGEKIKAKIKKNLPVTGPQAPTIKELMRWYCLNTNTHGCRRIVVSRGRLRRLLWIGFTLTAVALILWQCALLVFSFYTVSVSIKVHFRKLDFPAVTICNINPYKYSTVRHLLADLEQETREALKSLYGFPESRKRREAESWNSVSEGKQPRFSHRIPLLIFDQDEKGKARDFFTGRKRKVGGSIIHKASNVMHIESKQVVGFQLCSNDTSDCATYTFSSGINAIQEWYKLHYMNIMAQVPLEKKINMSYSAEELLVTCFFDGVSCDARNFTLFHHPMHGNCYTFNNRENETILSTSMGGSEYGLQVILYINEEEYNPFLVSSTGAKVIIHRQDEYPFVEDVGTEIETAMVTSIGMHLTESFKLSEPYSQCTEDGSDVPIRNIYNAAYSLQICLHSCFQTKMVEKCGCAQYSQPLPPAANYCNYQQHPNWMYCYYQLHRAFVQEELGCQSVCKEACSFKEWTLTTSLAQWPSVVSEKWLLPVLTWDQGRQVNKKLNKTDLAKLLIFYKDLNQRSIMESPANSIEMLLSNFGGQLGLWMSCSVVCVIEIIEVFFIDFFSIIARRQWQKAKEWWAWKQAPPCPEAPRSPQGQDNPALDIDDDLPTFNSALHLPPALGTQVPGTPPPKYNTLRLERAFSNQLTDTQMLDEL
Type: cell-based
Settings: for average baseline Isc slope in initial recording period: control slope +0.04
Protocol: Human bronchial epithelial (HBE) cells were purchased from Cambrex Bioscience Ltd, UK., and were stored frozen in liquid nitrogen until required for use.
HBE cells were amplified by growing in secondary culture according to the suppliers' instructions. Cells were seeded at densities of between 3,000 to 4,000/cm^2 in plastic T-25 culture flasks in bronchial epithelial cell growth medium (BEGM) prepared from bronchial epithelial basal medium (BEBM, Cambrex, UK) supplemented with bovine pituitary extract, hydrocortisone, human epidermal growth factor, epinephrine, transferrin, insulin, retinoic acid, triiodothyronine, gentamicin, and amphotericin B. Cultures were maintained at 37° C. in 5% CO2 in a humidified incubator. Medium was changed every 1 to 3 days until cells were approximately 90% confluent. Cells were then passaged with trypsin EDTA according to the suppliers' instructions, and either used for further cell cultures, or cryopreserved in liquid nitrogen in BEGM containing 10% foetal bovine serum and 10% DMSO.
HBE cells were prepared for electrophysiology studies by growing as tertiary cultures on Snapwell (Corning) 0.4μ clear polyester membrane inserts 1.2 cm^2 coated with collagen IV (Sigma). Cells were seeded at approximately 10^5/cm^2 in 0.5 ml 1:1 DMEM (Cambrex, UK) BEGM containing bovine pituitary extract (50 μg/ml), hydrocortisone (0.5 μg/ml), human epidermal growth factor (0.5 ng/ml), epinephrine (0.5 μg/ml), transferrin (10 μg/ml), insulin (5 μg/ml), retinoic acid (50 nM), and gentamicin (50 μg/ml) (Danahay medium; Danahay et al. 2002). Snapwell inserts were mounted in 6-well plates with 3 ml Danahay medium in the wells, and grown at 37° C. in 5% CO2 in a humidified incubator. Medium was changed every 1 to 3 days. An apical air-liquid interface (ALI) was established as the cells achieved confluence (3 to 6 days) by removal of medium from the centre of the insert. Confluent differentiated bronchial epithelial cells were used for electrophysiology studies at between 15 and 29 days after establishing ALI.
Differentiated HBE cells grown to confluence at an air-liquid interface for 15 to 29 days were used to study substances for ability to achieve long duration down regulation of the epithelial amiloride-sensitive sodium channel (ENaC).
Step 1: Treatment with substance. For each group of cells treated with a substance, 30 μl of 100 times final concentration of substance was added to the 3 ml basolateral culture medium, mixed and 150 μl of the resultant basolateral fluid was transferred to the apical surface for 5 min. For non-treatment control groups of basolateral fluid with no added substance was transferred to the apical surface. After 5 min. equilibration the excess apical fluid was then transferred back to the basolateral side of the culture well.
Step 2: Variable period of incubation with the substance. Dependent on the individual experiment the cells were returned to the 37° C. incubator for periods of 0 min. to 120 min.
Step 3: Period of substance washout with fresh culture medium. For experiments to study the duration of a substance response the HBE cells on Snapwell inserts were washed with fresh culture medium (no added substance) at 37° C. and placed in fresh 6-well plates containing 3 ml fresh culture medium (no added substance) on the basolateral side. […] Step 3 was omitted in studies where the duration of the substance response was not investigated.
Step 4: Wash with Krebs-Ringer buffer and assembly in Ussing chambers. The Snapwell insert cultures of HBE cells were removed from the 6-well plates and washed with excess Krebs-Ringer buffer (120 mM-NaCl, 25 mM-NaHCO3, 3.3 mM-KH2PO4, 0.8 mM-K2HPO4, 1.2 mM-CaCl2, 1.2 mM-MgCl2, 10 mM-glucose) pH7.4 at 37° C. The inserts were then mounted in Ussing chambers (Snapwell diffusion chambers, Costar UK Ltd.). Each side of the chamber was filled with 5 ml Krebs-Ringer buffer and gassed continuously with 95% O2/5% CO2 at 37° C. […]

[1] = down regulation of ENaC activity

## N=C(N)c1ccc2cc(OC(=O)c3ccc(N=C(N)N)cc3)ccc2c1 [6-amidino-2-napthyl 4-guanidinobenzoate]
1 μM 60 min, 3 h 00 min washout, FIG. 7D
  average baseline Isc slope in initial recording period: +0.93 μAmp/min
1 μM 60 min, 4 h 30 min washout, FIG. 7E
  average baseline Isc slope in initial recording period: +0.60 μAmp/min
1 μM 60 min, then 4 h 30 min culture medium washout
  amiloride ΔIsc compared to control: not significantly different
3 h 00 min in fresh culture, first 15 minutes of recording, FIGS. 7D and 7A
  slope of rising baseline short circuit current relative to untreated controls: over 20 times
[1]
  time to half maximal inhibition (onset): ≤ 5 min
  time to maximum down regulation (onset): ≤ 30 min
